# In patent US8361998B2, “Compounds and their use as IKACh blockers” (AstraZeneca AB, priority 2010, dated 2013):
# Read-outs that look alike come from different tables or passages of the source.
# Target: T1, human cardiac ion channel proteins hKir3.1/Kir3.4 (Homo sapiens, UniProt P48544+P48549)
# T1 construct: expressed in transfected cells
# T1 sequence (P48549 1-501): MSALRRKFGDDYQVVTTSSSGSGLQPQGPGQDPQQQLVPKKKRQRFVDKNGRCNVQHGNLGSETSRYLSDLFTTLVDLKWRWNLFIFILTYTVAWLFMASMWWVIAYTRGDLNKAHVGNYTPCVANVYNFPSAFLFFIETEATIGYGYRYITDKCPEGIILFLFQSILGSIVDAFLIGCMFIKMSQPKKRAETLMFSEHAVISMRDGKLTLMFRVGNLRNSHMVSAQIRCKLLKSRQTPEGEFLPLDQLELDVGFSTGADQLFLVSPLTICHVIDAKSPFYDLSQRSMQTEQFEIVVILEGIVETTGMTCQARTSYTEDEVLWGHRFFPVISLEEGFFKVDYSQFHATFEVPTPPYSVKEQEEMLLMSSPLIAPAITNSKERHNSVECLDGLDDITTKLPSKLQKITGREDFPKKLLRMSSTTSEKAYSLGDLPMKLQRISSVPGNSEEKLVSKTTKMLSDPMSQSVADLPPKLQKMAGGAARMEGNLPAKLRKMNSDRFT
# T1 sequence (P48544 1-419): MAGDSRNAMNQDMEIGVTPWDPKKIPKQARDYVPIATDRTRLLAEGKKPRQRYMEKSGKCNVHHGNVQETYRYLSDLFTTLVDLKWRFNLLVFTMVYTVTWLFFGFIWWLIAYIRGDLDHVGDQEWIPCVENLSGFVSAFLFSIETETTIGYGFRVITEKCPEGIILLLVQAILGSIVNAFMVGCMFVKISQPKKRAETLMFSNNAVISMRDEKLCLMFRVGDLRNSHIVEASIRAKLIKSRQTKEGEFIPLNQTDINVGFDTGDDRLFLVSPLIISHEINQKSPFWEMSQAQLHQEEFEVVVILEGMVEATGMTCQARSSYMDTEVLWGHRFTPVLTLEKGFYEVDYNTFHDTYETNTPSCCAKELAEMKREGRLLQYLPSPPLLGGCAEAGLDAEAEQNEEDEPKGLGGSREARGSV
# Assay: Atomic Absorption Screening (AAS) Rb efflux assay of hKir3.1/Kir3.4 block, carbachol/high K+ stimulated, 10-pt or 7-pt CR
# Format: cell-based
# Excerpt: Human KCNJ3 encoding Kir3.1 (Genbank acc. No. NM_002239) was inserted between EcoRI and NotI in the pIRESneo3 vector (Clontech Laboratories, Inc. CA, USA). Human KCNJ5 encoding Kir3.4 (Genbank Acc. No. BC069482) was inserted between EcoR1 and Not1 in the pIRESpuro3 vector (Clontech Laboratories, Inc. CA, USA). A Kozak sequence (GCCACC) was introduced before the start codon ATG of both constructs. Chinese Hamster Ovary K1, CHO-FLP/IN, cells (Invitrogen Corporation, Paisley, UK) were transfected simultaneously using Lipofectamine 2000 reagent (Invitrogen Corporation, Paisley, UK). Geneticin 600 μg/mL (Invitrogen Corporation, Paisley, UK) and puromycin 3 μg/mL (BD Bioscience) were added to the cell culture medium 3 days after transfection. Two weeks after transfection, colonies had appeared and were manually picked and sorted to one cell per well in a 96-well plate. Cells were then tested for Kir3.1 and Kir3.4 expression using membrane potential assay, Western Blot and Immunocytochemistry. […] The cell line was re-sorted by flow cytometry and resulting clones were assayed electrophysiologically using IonWorks (Molecular Devices) and later validated on the Q-Patch (Sophion A/S).
# The stable cell line was cultured in DMEM/F12 with Glutamax 1 (Invitrogen Corporation, Paisley, UK), supplemented with foetal bovine serum 10%, puromycin 3 μg/mL, hygromycin 300 μg/mL and geneticin 600 μg/mL (Invitrogen Corporation, Paisley, UK). Care was taken not to seed cells at too low density and cells were passaged at approximately 70-80% confluency. Cells used for patch-clamp experiments were prepared by washing using PBS (—Mg, —Ca^2+), 2 times, detached using Accutase (Sigma). For Q-Patch measurements, storage medium was prepared fresh by adding 1.25 mL of 1M Hepes (GibcoBRL) to 50 mL CHO-SFM II medium (GibcoBRL) and detached cells were diluted to 2 million cells/mL in this medium. Frozen (Cryopreserved) cells were used for Atomic Absorption Screening (AAS) and plated poly-D-lysine 384-well plates (Greiner) at a density of 11,000-13,000 cells/well, the day before assay.
# The blocking effects of compounds on the human cardiac ion channel proteins hKir3.1/Kir3.4 were assessed in CHO-K1 cells stably expressing the channel proteins using Atomic Absorption Screening (AAS). Cells were washed and then loaded with 25 μL Rb-loading buffer for three hours at 37° C. After that, the cells were washed again and 25 μL of diluted compound was transferred to the cell plate, incubated for 5 min in RT, and then […] of Carbachol/high K+ (10 μM carbachol and 20 mM KCl final concentration) buffer added to stimulate the cells and open the Kir3.1/Kir3.4 channel. After 10 min stimulation, […] of the supernatant was transferred to a new microplate, 45 μL washing buffer added to the supernatant and the level of Rb in the supernatant was then measured using an Aurora ICR 8000. Compounds were studied at concentrations ranging from 0.003 to 67 μmol/L (dilutions by three, 10-pt CR) or from 0.037 to 27 μmol/L (dilutions by three, 7-pt CR).
# Stock solutions of compounds were prepared in DMSO 10 mM and stored at RT. Buffers used for AAS contained (in mM): HEPES 20, NaCl 150, MgCl2 1.0, CaCl2 2.0 and NaH2PO4 0.8 and Glucose 10 (wash 1) or KCl 5 and Glucose 5 (wash 2) or KCl 5 (dilution buffer). The High K^+ channel opener buffer contained (in mM): HEPES 20, NaCl 130, MgCl2 1.0, CaCl2 2.0 and NaH2PO4 0.8 together with KCl 20. Solutions used for Q-Patch (extracellular) in mM: NaCl 145, KCl 4, CaCl2 2.0, MgCl2 1.0, HEPES 10 and glucose 10. The high K^+ extra cellular solution used for Q-Patch in mM: NaCl 96.7, KCl 50.7, CaCl2 2.0, MgCl2 1.0, HEPES 10 and glucose 10 while the intra cellular solution used was (in mM): KCl 120, CaCl2 5.374, MgCl2 1.75, EGTA 10, KOH 3.125, HEPES 10, Na2ATP 4.
# Results are given as mean IC50 of >4 replicates (10-pt CR, AAS) or >3 replicates (7-pt CR, AAS). Some of the data in Table 1 are mean values of two or more runs. […]
# [1] = printed as IC50 >67 μM in the 10-pt CR assay or IC50 >27 μM in the 7-pt CR assay, assay format per compound not stated, read-out: IC50
# [2] = 10-pt CR (0.003 to 67 μmol/L), AAS Rb efflux, CHO-K1 cells expressing hKir3.1/Kir3.4, mean of >4 replicates, read-out: IKACh IC50 10-pt CR, AAS
SMILES,IC50 [1] [µM],IC50 [2] [µM]
CC(C)[C@@H](CCN1CCCC1)N(C)C(=O)c1ccc(Cl)cc1F [4-Chloro-2-fluoro-N-methyl-N-[(1R)-2-methyl-1-(2-pyrrolidin-1-ylethyl)propyl]benzamide],> 27,–
"CC(C)[C@@H](CN1C[C@@H](O)[C@H](O)C1)N(C)C(=O)c1ccc(Cl)cc1 [4-Chloro-N-((S)-1-((3R,4R)-3,4-dihydroxypyrrolidin-1-yl)-3-methylbutan-2-yl)-N-methylbenzamide]",> 27,–
"CC(C)[C@@H](CN1C[C@@H](O)[C@H](O)C1)N(C)C(=O)c1ccc(C#N)cc1 [4-Cyano-N-((S)-1-((3R,4R)-3,4-dihydroxypyrrolidin-1-yl)-3-methylbutan-2-yl)-N-methylbenzamide]",> 27,–
"CC(C)[C@@H](CN1C[C@H](O)[C@@H](O)C1)N(C)C(=O)c1ccc(C#N)cc1 [4-Cyano-N-((S)-1-((3S,4S)-3,4-dihydroxypyrrolidin-1-yl)-3-methylbutan-2-yl)-N-methylbenzamide]",> 27,–
"Cc1cc(C(=O)N(C)C(C)(C)CN2CCCC2)ccc1F [4-Fluoro-N,3-dimethyl-N-(2-methyl-1-(pyrrolidin-1-yl)propan-2-yl)benzamide]",> 27,–
CC(C)[C@@H](CN1CC(O)C1)N(C)C(=O)c1ccc(F)c(CO)c1 [4-Fluoro-N-[(1S)-1-[(3-hydroxyazetidin-1-yl)methyl]-2-methyl-propyl]-3-(hydroxymethyl)-N-methyl-benzamide],> 27,–
CC(C)[C@@H](CN1CCCC1)N(C)C(=O)c1ccc(F)cc1 [4-Fluoro-N-methyl-N-[(1S)-2-methyl-1-(pyrrolidin-1-ylmethyl)propyl]benzamide],> 27,–
CC(C)[C@H](CN1CCC1)N(C)C(=O)c1ccc(Br)cc1 [(R)-N-(1-(Azetidin-1-yl)-3-methylbutan-2-yl)-4-bromo-N-methylbenzamide],> 27,–
"CC(C)[C@@H](CN1CC(F)(CO)C1)N(C)C(=O)c1ccc(F)c(F)c1 [(S)-3,4-Difluoro-N-(1-(3-fluoro-3-(hydroxymethyl)azetidin-1-yl)-3-methylbutan-2-yl)-N-methylbenzamide]",> 27,–
"CC(C)[C@@H](CN1CC(C)(O)C1)N(C)C(=O)c1ccc(F)c(F)c1 [(S)-3,4-Difluoro-N-(1-(3-hydroxy-3-methylazetidin-1-yl)-3-methylbutan-2-yl)-N-methylbenzamide]",> 27,–
"CC(C)[C@@H](CN1CCC(F)(F)C1)N(C)C(=O)c1ccc(Br)cc1 [(S)-4-Bromo-N-(1-(3,3-difluoropyrrolidin-1-yl)-3-methylbutan-2-yl)-N-methylbenzamide]",> 27,–
"CC(C)[C@@H](CN1CCC(F)(F)C1)N(C)C(=O)c1ccc(Cl)cc1 [(S)-4-Chloro-N-(1-(3,3-difluoropyrrolidin-1-yl)-3-methylbutan-2-yl)-N-methylbenzamide]",> 27,–
CC(C)[C@@H](CN1CC(F)C1)N(C)C(=O)c1ccc(C#N)cc1F [(S)-4-Cyano-2-fluoro-N-(1-(3-fluoroazetidin-1-yl)-3-methylbutan-2-yl)-N-methylbenzamide],> 27,–
CC(C)[C@@H](CN1CC(C)(O)C1)N(C)C(=O)c1ccc(F)cc1 [(S)-4-Fluoro-N-(1-(3-hydroxy-3-methylazetidin-1-yl)-3-methylbutan-2-yl)-N-methylbenzamide],> 27,–
"CC(C)[C@@H](CN1CCCC(F)(F)C1)N(C)C(=O)c1ccc(F)c(F)c1 [(S)-N-(1-(3,3-Difluoropiperidin-1-yl)-3-methylbutan-2-yl)-3,4-difluoro-N-methylbenzamide]",> 27,–
"Cc1cc(C(=O)N(C)[C@H](CN2CCC(F)(F)C2)C(C)C)ccc1F [(S)-N-(1-(3,3-Difluoropyrrolidin-1-yl)-3-methylbutan-2-yl)-4-fluoro-N,3-dimethylbenzamide]",> 27,–
COc1cccc(C(=O)N(C)[C@H](CN2CC(F)C2)C(C)C)c1 [(S)-N-(1-(3-Fluoroazetidin-1-yl)-3-methylbutan-2-yl)-3-methoxy-N-methylbenzamide],> 27,–
CC(C)[C@@H](CN1CC(C)(O)C1)N(C)C(=O)c1ccccc1 [(S)-N-(1-(3-Hydroxy-3-methylazetidin-1-yl)-3-methylbutan-2-yl)-N-methylbenzamide],> 27,–
"Cc1cc(C(=O)N(C)[C@H](CN2CCC(F)(F)CC2)C(C)C)ccc1F [(S)-N-(1-(4,4-Difluoropiperidin-1-yl)-3-methylbutan-2-yl)-4-fluoro-N,3-dimethylbenzamide]",> 27,–
COc1ccc(C(=O)N(C)[C@H](CN2CCC2)C(C)C)cc1F [(S)-N-(1-(Azetidin-1-yl)-3-methylbutan-2-yl)-3-fluoro-4-methoxy-N-methylbenzamide],> 27,–
CC(C)[C@@H](CN1CCC1)N(C)C(=O)c1ccc(C#N)cc1 [(S)-N-(1-(Azetidin-1-yl)-3-methylbutan-2-yl)-4-cyano-N-methylbenzamide],> 27,–
"Cc1cc(F)ccc1C(=O)N(C)[C@H](CN1CCCC1)C(C)(C)C [(S)-N-(3,3-Dimethyl-1-(pyrrolidin-1-yl)butan-2-yl)-4-fluoro-N,2-dimethylbenzamide]",> 27,–
"CCC[C@@H](CN1CCC1)N(C)C(=O)c1ccc(Cl)cc1Cl [Example 1.1, (S)—N-(1-(Azetidin-1-yl)pentan-2-yl)-2,4-dichloro-N-methylbenzamide]",–,2.3
"CCC[C@@H](CN1CCC1)N(C)C(=O)c1ccc(Br)cc1 [Example 1.3, (S)-N-(1-(Azetidin-1-yl)pentan-2-yl)-4-bromo-N-methylbenzamide]",–,3.1
